These results are taken from the NIST ThermoML archive (doi:10.1021/je100125x).

The nature of data set [1]: Molar enthalpy of transition or fusion. The settings on record: Crystal; DSC.
For data set [2] the following is noted: Crystal; DTA.

Numbers after ± are expanded uncertainties.

With `C[C@@H]1CC[C@H]2[C@@H](C)C(=O)O[C@@H]3O[C@@]4(C)CC[C@@H]1[C@]32OO4` [artemisinin], in data set [1], the “Molar enthalpy of transition or fusion” value stood at 5.81 ± 0.225 kcal/mol. Besides, in data set [2], the Triple point temperature amounted to 429.6 ± 1.1 K.
